Experimental data: PubChem BioAssay AID2060619 (Molecular Pharmacology Branch, DTP, NCI, 2025)

Tested on: 323965-272-R-J2-PDC complex spheroid viability
Assay: Anticancer human tumor 323965-272-R-J2-PDC patient-derived pancreatic carcinoma cell line growth inhibition [CLK]
Conditions: for IC50: curve of first compound; for viability, T/C: stronger effect = lower value
From the text: A high-throughput screen of multi-cell type tumor spheroids was designed to identify active combinations of […] and targeted small molecules. Complex spheroids include a stromal component modeled by human endothelial cells (HUVEC) and fibroblasts modeled by human mesenchymal stem cells (MSCs). The concentration ranges selected for each drug and investigational agent were based upon clinically achievable concentrations if the clinical Cmax of the agent was known.
Compounds. The drugs and investigational agents: cirtuvivint (SM08502; NSC835563), CC-671 (NSC850746), vemurafenib (NSC761431), tapotoclax (NSC804041), sotorasib (NSC818433), adagrasib (NSC831453), MRTX-1133 (NSC836407), BAY2416964 (NSC825713), copanlisib (NSC816437), inavolisib (NSC800729), abemaciclib (NSC768073), osimertinib (NSC779217), entinostat (NSC756642), eltanexor (KPT-8602, NSC794443), venetoclax (NSC766270), ceralasertib (NSC777638), bortezomib (NSC756655), olaparib (NSC753686), talazoparib (NSC767125), alisertib (NSC759677), peposertib (NSC802822), gemcitabine (NSC613327), 5-fluorouracil (NSC19893), SN-38 (NSC673596), oxaliplatin (NSC266046), paclitaxel (NSC125973), and doxorubicin (NSC123127), were obtained from the National Cancer Institute (NCI) Developmental Therapeutics Program Chemical Repository. The FDA-approved anticancer drug set is available from the Developmental Therapeutics Program at https://dtp.cancer.gov/organization/dscb/obtaining/available plates.htm. […] The stock solutions were prepared in dimethyl sulfoxide (DMSO, Sigma-Aldrich, St. Louis, MO, cat. D2650), except for the platinum complexes which were prepared in saline (Quality Biological, Gaithersburg, MD, cat. 114-055-101), at 800-fold the tested concentration and stored at -70 degrees C prior to their use. All drugs and investigational agents were tested over a range starting from a high concentration at or near the clinical Cmax and decreasing in half-log increments. If the clinical Cmax for an agent had not been determined, the highest concentration tested was 10 microM.
Cell Culture. All cells were maintained in an incubator at 37 degrees C and 5% CO2 with 95% humidity. The PDC lines were cultured according to standard operating procedures established by the NCI PDMR. Briefly, all PDCs were thawed and cultured in Matrigel-coated flasks prepared with a working solution of 1X Ham's F-12 nutrient mix, without supplementation (Invitrogen, Waltham, MA, cat. 11765054), 100 U/mL penicillin-streptomycin (Invitrogen, cat. 15140122), and 2.5% Matrigel (Corning Inc., Corning, NY, cat. 354248) for the first three passages. The 947758-054-R-J2-PDC line was cultured in 6B/Colon 1A media, which includes advanced DMEM/F-12 (Thermo Fisher Scientific, cat. 12634028), 10 mM HEPES (Thermo Fisher Scientific, cat. 15630080), 1X GlutaMAX supplement (Thermo Fisher Scientific, cat. 35050061), 0.1 mg/mL primocin (InvivoGen, cat. ant-pm-2), 10% defined fetal bovine serum, heat inactivated (HyClone Laboratories Inc., cat. SH30070.03HI), 1.25 mM N-Acetyl-L-cysteine (Sigma-Aldrich, cat. A9165), 10 mM nicotinamide (Sigma-Aldrich, cat. N0636), 1X B-27 supplement (Thermo Fisher Scientific, cat. 17504044), 1X N-2 supplement (Thermo Fisher Scientific, cat. 17502048), and 10 microM Y-27632 dihydrochloride (Tocris Bioscience, cat. 1254). The 876862-298-R-J1-PDC was cultured in 6E media, which includes all 6B/Colon 1A media components plus 50% L-WRN conditioned media (ATCC, cat. CRL-3276), 50 ng/mL recombinant human EGF recombinant protein (hEGF; Thermo Fisher Scientific, cat. PHG0311), 10 ng/mL recombinant human fibroblast growth factor 10 (hGFG-10; PeproTech, cat. 100-26), 1 ng/mL recombinant human fibroblast growth factor 2 (hFGF-2; PeproTech, cat. 100-18B), and 1 µM prostaglandin E2 (PGE2; Tocris, cat. 2296). The 227483-062-R1-J1-PDC line was cultured in Panc media, containing all 6E components except hFGF-2, with the addition of 500 nM SB-431542 (Selleckchem, cat. S1067) and 10 nM gastrin (Tocris, cat. 3006). […]
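Note: spheroids exposed to agents for seven days before readout.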
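Throughout, for viability, T/C: percent of DMSO vehicle control wells so 100% = untreated growth.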

C=CC(=O)Nc1cc(Nc2nccc(-c3cn(C)c4ccccc34)n2)c(OC)cc1N(C)CCN(C)C + CN1CCN(c2cc(C(=O)Nc3cc4cc(-c5cnn(C)c5)ccc4cn3)ccn2)CC1
IC50 (second compound 0.0316 µM): > 300 nM | IC50 (second compound 0.1 µM): > 300 nM | IC50 (second compound 0.316 µM): < 0.949 nM | IC50 (second compound 1 µM): < 0.949 nM | IC50 (second compound 3.16 µM): < 0.949 nM | IC50 (second compound 10 µM): < 0.949 nM | viability, T/C (second compound 0.0316 µM, first compound 0.000949 µM): 92.1% | viability, T/C (second compound 0.0316 µM, first compound 0.003 µM): 86.8% | viability, T/C (second compound 0.0316 µM, first compound 0.00949 µM): 89.3% | viability, T/C (second compound 0.0316 µM, first compound 0.03 µM): 89.6% | viability, T/C (second compound 0.0316 µM, first compound 0.0949 µM): 82% | viability, T/C (second compound 0.0316 µM, first compound 0.3 µM): 75.8% | viability, T/C (second compound 0.1 µM, first compound 0.000949 µM): 73.2% | viability, T/C (second compound 0.1 µM, first compound 0.003 µM): 76.4% | viability, T/C (second compound 0.1 µM, first compound 0.00949 µM): 59.1% | viability, T/C (second compound 0.1 µM, first compound 0.03 µM): 61.8% | viability, T/C (second compound 0.1 µM, first compound 0.0949 µM): 52.2% | viability, T/C (second compound 0.1 µM, first compound 0.3 µM): 51.4% | viability, T/C (second compound 0.316 µM, first compound 0.000949 µM): 21.9% | viability, T/C (second compound 0.316 µM, first compound 0.003 µM): 26.8% | viability, T/C (second compound 0.316 µM, first compound 0.00949 µM): 21.4% | viability, T/C (second compound 0.316 µM, first compound 0.03 µM): 19.1% | viability, T/C (second compound 0.316 µM, first compound 0.0949 µM): 17.7% | viability, T/C (second compound 0.316 µM, first compound 0.3 µM): 17.3% | viability, T/C (second compound 1 µM, first compound 0.000949 µM): 3.35% | viability, T/C (second compound 1 µM, first compound 0.003 µM): 2.76% | viability, T/C (second compound 1 µM, first compound 0.00949 µM): 7.03% | viability, T/C (second compound 1 µM, first compound 0.03 µM): 2.91% | viability, T/C (second compound 1 µM, first compound 0.0949 µM): 2.48% | viability, T/C (second compound 1 µM, first compound 0.3 µM): 2.38% | viability, T/C (second compound 3.16 µM, first compound 0.000949 µM): 3.68% | viability, T/C (second compound 3.16 µM, first compound 0.003 µM): 3.94% | viability, T/C (second compound 3.16 µM, first compound 0.00949 µM): 5.04% | viability, T/C (second compound 3.16 µM, first compound 0.03 µM): 2.7% | viability, T/C (second compound 3.16 µM, first compound 0.0949 µM): 2.6% | viability, T/C (second compound 3.16 µM, first compound 0.3 µM): 3.13% | viability, T/C (second compound 10 µM, first compound 0.000949 µM): 4.03% | viability, T/C (second compound 10 µM, first compound 0.003 µM): 4.64% | viability, T/C (second compound 10 µM, first compound 0.00949 µM): 4.92% | viability, T/C (second compound 10 µM, first compound 0.03 µM): 3.05% | viability, T/C (second compound 10 µM, first compound 0.0949 µM): 2.71% | viability, T/C (second compound 10 µM, first compound 0.3 µM): 3.08%

Nc1ccccc1NC(=O)c1ccc(CNC(=O)OCc2cccnc2)cc1 + CN1CCN(c2cc(C(=O)Nc3cc4cc(-c5cnn(C)c5)ccc4cn3)ccn2)CC1
IC50 (second compound 0.0316 µM): 6960 nM | IC50 (second compound 0.1 µM): 3000 nM | IC50 (second compound 0.316 µM): < 31.6 nM | IC50 (second compound 1 µM): < 31.6 nM | IC50 (second compound 3.16 µM): < 31.6 nM | IC50 (second compound 10 µM): < 31.6 nM | viability, T/C (second compound 0.0316 µM, first compound 0.0316 µM): 92.1% | viability, T/C (second compound 0.0316 µM, first compound 0.1 µM): 92.3% | viability, T/C (second compound 0.0316 µM, first compound 0.316 µM): 93.6% | viability, T/C (second compound 0.0316 µM, first compound 1 µM): 99% | viability, T/C (second compound 0.0316 µM, first compound 3.16 µM): 63.5% | viability, T/C (second compound 0.0316 µM, first compound 10 µM): 43.8% | viability, T/C (second compound 0.1 µM, first compound 0.0316 µM): 79% | viability, T/C (second compound 0.1 µM, first compound 0.1 µM): 75.9% | viability, T/C (second compound 0.1 µM, first compound 0.316 µM): 80% | viability, T/C (second compound 0.1 µM, first compound 1 µM): 78.7% | viability, T/C (second compound 0.1 µM, first compound 3.16 µM): 48.6% | viability, T/C (second compound 0.1 µM, first compound 10 µM): 30.6% | viability, T/C (second compound 0.316 µM, first compound 0.0316 µM): 26.4% | viability, T/C (second compound 0.316 µM, first compound 0.1 µM): 24.6% | viability, T/C (second compound 0.316 µM, first compound 0.316 µM): 21.4% | viability, T/C (second compound 0.316 µM, first compound 1 µM): 21.8% | viability, T/C (second compound 0.316 µM, first compound 3.16 µM): 17.1% | viability, T/C (second compound 0.316 µM, first compound 10 µM): 16.8% | viability, T/C (second compound 1 µM, first compound 0.0316 µM): 3.43% | viability, T/C (second compound 1 µM, first compound 0.1 µM): 3.41% | viability, T/C (second compound 1 µM, first compound 0.316 µM): 4.13% | viability, T/C (second compound 1 µM, first compound 1 µM): 2.18% | viability, T/C (second compound 1 µM, first compound 3.16 µM): 2.06% | viability, T/C (second compound 1 µM, first compound 10 µM): 0.81% | viability, T/C (second compound 3.16 µM, first compound 0.0316 µM): 3.66% | viability, T/C (second compound 3.16 µM, first compound 0.1 µM): 5.59% | viability, T/C (second compound 3.16 µM, first compound 0.316 µM): 6.21% | viability, T/C (second compound 3.16 µM, first compound 1 µM): 4.43% | viability, T/C (second compound 3.16 µM, first compound 3.16 µM): 2.9% | viability, T/C (second compound 3.16 µM, first compound 10 µM): 3.42% | viability, T/C (second compound 10 µM, first compound 0.0316 µM): 3.69% | viability, T/C (second compound 10 µM, first compound 0.1 µM): 4.56% | viability, T/C (second compound 10 µM, first compound 0.316 µM): 5.4% | viability, T/C (second compound 10 µM, first compound 1 µM): 4.41% | viability, T/C (second compound 10 µM, first compound 3.16 µM): 4.37% | viability, T/C (second compound 10 µM, first compound 10 µM): 2.69%
